Experiment [1] concerns the target T1, DNA-PK (Homo sapiens, UniProt P78527).
T1 construct: purchased Invitrogen PR9107A
Briefly: DNA-PK Assay for Biochemical Enzymatic Inhibition (ADP Glo Kinase assay). Particulars: Table 1. The protocol: A biochemical assay was performed to identify IC50 values against DNA-PK activity in a two-step reaction with a kinase reaction followed by ADP Glo™ Kinase assay Kit (Promega V9102).
Three-fold serial dilutions of compounds in DMSO were prepared in kinase assay buffer (50 mM HEPES pH 7.5, 20 mM MgCl2, 100 mM KCl, 50 μM DTT, 10 μg/ml calf thymus DNA, 0.01% Tween 20). Kinase assay buffer was used to prepare compound treatments to 0.02% DMSO (dimethyl sulphoxide) content. DMSO controls were prepared to produce a maximum and minimum luminescence signal for normalization. Substrate (Anaspec, AS-60210-5) and ATP (Promega V9102) and ATP mix was prepared by dilution in kinase assay buffer for 434.4 μM and 64.4 μM final assay concentrations, respectively. Compounds and control were added to 25 ng DNA-PK enzyme (Invitrogen, PR9107A) diluted in kinase buffer in assay plate (Corning 267459) and incubated for 15 minutes at room temperature prior to addition of substrate and ATP mix.
Throughout the assay, each time a reagent was added to the microplate, it was centrifuged for 1 minute at 1300 rcf. All reagents were added, and incubations carried out at room temperature. The reaction was then incubated for 60 minutes. ADP-ATP standards at 0, 4, 10, 40, 80, and 100% ADP (prepared as specified in the ADP Glo™ Kinase assay kit) were also added to the microplate at a volume equal to the total kinase reaction. The ADP Glo™ Kinase Assay kit was then used to quantify DNA-PK activity: following the 60-minute incubation, a 1:1 volume of ADP Glo reagent was added to all wells, then following a further 45-minute incubation, a 1:1 volume of Kinase Detection Reagent was added to all wells. After this two-step assay, plates were incubated in a Synergy-Neo2 plate reader for 30 minutes with gentle shaking, followed by endpoint luminescent read Luminescence data was normalized by subtracting the background signal and expressing all background-adjusted values as a percentage of the average maximum signal. The data was then expressed as percent inhibition by subtracting from 100% (i.e. maximum luminescent signal will be 0% inhibition) and the resulting data plotted against ten concentration points on a logarithmic scale, using GraphPad Prism. Non-linear regression analysis was performed on each concentration response curve and the log [inhibitor] vs response—variable slope (four parameters) equation was selected to generate IC50 values.
In general terms: In ADP-Glo the light output rises with the ADP produced.

For experiment [2], the target named is T2, DNA-PK phosphorylation at Serine 2056 (Homo sapiens, UniProt P78527).
T2 construct: host or cells: FaDu
Briefly: Cellular Assay for Inhibition of DNA-PK Phosphorylation at Serine 2056 (FaDu cells, neocarzinostatin, sandwich ELISA). It counts as cell-based. The settings on record: Table 1. The essentials:
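FaDu cells were pretreated with compound (0.3% DMSO) for 1 h, then exposed to neocarzinostatin at 1 μg/mL final for 2 h to induce DSBs. Protein-normalized lysates were assayed by MSD sandwich ELISA for total and pSer2056 DNA-PK. IC50 came from variable-slope fits of % inhibition relative to DMSO and NCS controls.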

Experiment [3] concerns the target T3, pDNA-PK ser2056 induction in HCT116 spheroids (Homo sapiens, UniProt P78527).
T3 construct: endogenous in cells; host or cells: HCT116 multicellular tumour spheroids
In words: Multicellular tumour spheroid + radiation, pDNA-PK inhibition, HCT116. It is filed as cell-based. The settings on record: 20 Gy. Here is the method: Multicellular tumour spheroids determination of compound inhibition of pDNA-PK induction following radiation. Tumour spheroids were grown to approximately 0.5 mm in diameter and irradiated with 20 Gy in combination with inhibitor test compounds to determine their potency. Inhibitor concentration for 50% reduction in pDNA-PK induction (IC50) was determined via immunohistochemical staining in spheroid cryosections taken 2 hours following radiation.
Spheroid, Cell Line: […], Immunohistochemical endpoint, pDNA-PK inhibition, EC50 in μm.
Spheroid+radiation pDNA-PK. Radiation: 20 Gy. Drug: serial dilution 5 or 10 μM down to 3.5 nM (11 wells). Spheroids: 3-6 spheroids per well (300-500 μm diameter). 20% O2 and 5% CO2. 96 well plate format.
Protocol: pre-incubate 1 hours with drug, irradiate with 20 Gy, post-incubate 2 hours with drug, freeze and cryosection ×3 replicates.
Endpoint: fluorescent immunostin pDNA-PK ser2056 and image on microscope.
Analysis: determine EC50 concentration that decreases pDNA-PK induction by 50% after radiation.
Multicellular tumour spheroids determination of compound inhibition of pDNA-PK induction following radiation. Tumour spheroids were grown to approximately 0.5 mm in diameter and irradiated with 20 Gy in combination with inhibitor test compounds to determine their potency. Inhibitor concentration for 50% reduction in pDNA-PK induction (IC50) was determined via immunohistochemical staining in spheroid cryosections taken 2 hours following radiation. For cell survival endpoint 8 Gy radiation was used and 3 hours following radiation spheroids were dissociated, counted and plated for colony forming endpoint.
Spheroid+radiation pDNA-PK. Radiation: 20 Gy. Drug: serial dilution 5 or 10 μM down to 3.5 nM (11 wells). Spheroids: 3-6 spheroids per well (300-500 μm diameter). 20% O2 and 5% CO2. 96 well plate format. Endpoint: fluorescent immunostain pDNA-PK ser2056 and image on microscope. Analysis: determine EC50 concentrations that decreases pDNA-PK induction […] after irradiation.
Multicellular tumour spheroids were used to determine potency of test compounds in a 3D tissue environment using inhibition of pDNA-PK induction following radiation or cell survival as the endpoint. For the pDNA-PK endpoint HCT116 or FaDU tumour spheroids were grown to approximately 0.5 mm in diameter and irradiated with 20 Gy in combination with inhibitor test compounds to determine their potency. Experiments were carried out in 96 well plates containing 0.7 mls of MEM media containing 10% FBS and 10 mM glucose under 20% O2 & 5% CO2 at 37° C. Following dilution of compounds 1:1000 from DMSO stocks, compounds were serially diluted from 10 μM down to 3.5 nM and 5-10 spheroids added. 96 well plates were constantly stirred to avoid spheroids settling during the course of the experiment. The inhibitor concentration for 50% reduction in pDNA-PK induction (EC50) was determined via immunohistochemical staining in spheroid cryosections taken 2 hours following radiation using anti-pDNA-PK (ser 2056) and fixed immediately in formalin following sectioning. For cell survival endpoint 8 Gy radiation was used and, 3 hours following radiation, spheroids were dissociated, counted and plated for colony forming endpoint. Data presented in the table compound potency as EC50 [μM].

The mark [4] stands for this setting: Example 7, spheroid, cell line HCT115 [sic], 20% O2, read-out: EC50 (pDNA-PK inhibition, immunohistochemical endpoint).
[5] abbreviates: Example 9 Study 2, 20% O2, read-out: Spheroid Cell line: HCT116 Immunohistochemical endpoint pDNA-PK inhibition EC50.
[6] abbreviates: Example 8, spheroid, read-out: Cell line: HCT116 Immunohistochemical endpoint pDNA-PK inhibition EC50.

Each structure is given as a SMILES string. Read-outs that look alike come from different tables or passages of the source.

On to `Fc1cnc(N[C@H]2CC[C@@H](Oc3nc(N4CCOCC4)cc4ncccc34)CC2)nc1` [Compound 40, 5-fluoro-N-((1s,4s)-4-((7-morpholino-1,6-naphthyridin-5-yl)oxy)cyclohexyl)pyrimidin-2-amine], for which the values for the IC50 in experiment [1] and in experiment [2] were less than 0.5 nM and 100 to 1000 nM, respectively. The EC50 in experiment [3] (setting [4]) and in experiment [3] (setting [5]) was 1000 to 10000 nM each time.

Regarding `Clc1cnc(N[C@H]2CC[C@@H](Oc3nc(N4CCOCC4)cc4ncccc34)CC2)nc1` [Compound 41, 5-chloro-N-((1s,4s)-4-((7-morpholino-1,6-naphthyridin-5-yl)oxy)cyclohexyl)pyrimidin-2-amine], the IC50 in experiment [1] is 0.5 to 1 nM; in experiment [2], 100 to 1000 nM. Moreover, the EC50 in experiment [3] (setting [4]) and in experiment [3] (setting [5]) was 1000 to 10000 nM each time.

On to `Ic1cnc(N[C@H]2CC[C@@H](Oc3nc(N4CCOCC4)cc4ncccc34)CC2)nc1` [Compound 42, 5-iodo-N-((1s,4s)-4-((7-morpholino-1,6-naphthyridin-5-yl)oxy)cyclohexyl)pyrimidin-2-amine], for which the IC50 was in the range of 0.5 to 1 nM in experiment [1] and 100 to 1000 nM in experiment [2]. Also, the EC50 in experiment [3] (setting [4]) and in experiment [3] (setting [5]) was 1000 to 10000 nM in each case.

For `FC(F)(F)c1ccnc(N[C@H]2CC[C@@H](Oc3nc(N4CCOCC4)cc4ncccc34)CC2)n1` [Compound 47, N-((1s,4s)-4-((7-morpholino-1,6-naphthyridin-5-yl)oxy)cyclohexyl)-4-(trifluoromethyl)pyrimidin-2-amine], the IC50 in experiment [1] was 1 to 10 nM; in experiment [2], less than 100 nM. The EC50 in experiment [3] (setting [4]) and in experiment [3] (setting [5]) was 1000 to 10000 nM throughout.

`CN(C)c1ccnc(N[C@H]2CC[C@@H](Oc3nc(N4CCOCC4)cc4ncccc34)CC2)n1` [Compound 50, N4,N4-dimethyl-N2-((1s,4s)-4-((7-morpholino-1,6-naphthyridin-5-yl)oxy)cyclohexyl)pyrimidine-2,4-diamine]: the IC50 in experiment [1] fell in the range of 0.5 to 1 nM; in experiment [2] it was 100 to 1000 nM. Moreover, the EC50 in experiment [3] (setting [4]) and in experiment [3] (setting [5]) was 1000 to 10000 nM throughout.

As for `O=C(O)c1cnc(N[C@H]2CC[C@@H](Oc3nc(N4CCOCC4)cc4ncccc34)CC2)nc1` [Compound 51, 2-(((1s,4s)-4-((7-morpholino-1,6-naphthyridin-5-yl)oxy)cyclohexyl)amino)pyrimidine-5-carboxylic acid], the IC50 in experiment [1] is less than 0.5 nM; in experiment [2], 1000 to 10000 nM. Besides, the EC50 in experiment [3] (setting [4]) and in experiment [3] (setting [5]) was 500 to 1000 nM each time.

Take `Clc1nc(N[C@H]2CC[C@@H](Oc3nc(N4CCOCC4)cc4ncccc34)CC2)c2occc2n1` [Compound 80b, 2-chloro-N-((1s,4s)-4-((7-morpholino-1,6-naphthyridin-5-yl)oxy)cyclohexyl)furo[3,2-d]pyrimidin-4-amine]: the results for the IC50 in experiment [1] and in experiment [2] were less than 0.5 nM and 100 to 1000 nM, respectively. The EC50 in experiment [3] (setting [4]) and in experiment [3] (setting [5]) was 1000 to 10000 nM each time.

`c1cnc2cc(N3CCOCC3)nc(O[C@H]3CC[C@@H](Nc4ccc5nccn5n4)CC3)c2c1` [Compound 90, N-((1s,4s)-4-((7-Morpholino-1,6-naphthyridin-5-yl)oxy)cyclohexyl)imidazo[1,2-b]pyridazin-6-amine]: the values for the IC50 in experiment [1] and in experiment [2] were 0.5 to 1 nM and 100 to 1000 nM, respectively. Besides, the 50% effective concentration (EC50) in experiment [3] (setting [4]) and in experiment [3] (setting [5]) was 1000 to 10000 nM throughout.

As to `Cc1cc2ncnn2cc1N[C@H]1CC[C@@H](Oc2nc(N3CCOCC3)cc3ncccc23)CC1` [Compound 91, 7-Methyl-N-((1s,4s)-4-((7-morpholino-1,6-naphthyridin-5-yl)oxy)cyclohexyl)-[1,2,4]triazolo[1,5-a]pyridin-6-amine], the IC50 was 1 to 10 nM in experiment [1] and 1000 to 10000 nM in experiment [2]. In addition, the EC50 in experiment [3] (setting [4]) and in experiment [3] (setting [5]) was 10000 to 100000 nM throughout.

`c1cnc2cc(N3CCOCC3)nc(O[C@H]3CC[C@@H](Nc4ccc5ncnn5c4)CC3)c2c1` [Compound 92, N-((1s,4s)-4-((7-Morpholino-1,6-naphthyridin-5-yl)oxy)cyclohexyl)-[1,2,4]triazolo[1,5-a]pyridin-6-amine]: the IC50 in experiment [1] was in the range of 1 to 10 nM; in experiment [2] it was 100 to 1000 nM. Further, the concentration giving a half-maximal response (EC50) in experiment [3] (setting [4]) and in experiment [3] (setting [5]) was 1000 to 10000 nM each time.

As for `CCCC(=O)N[C@H]1CC[C@@H](Oc2nc(N3CCOCC3)cc3ncccc23)CC1` [Compound 103, N-((1s,4s)-4-((7-Morpholino-1,6-naphthyridin-5-yl)oxy)cyclohexyl)butyramide], the IC50 in experiment [1] was 1 to 10 nM; in experiment [2], 100 to 1000 nM. Besides, the half-maximal effective concentration (EC50) in experiment [3] (setting [4]), in experiment [3] (setting [6]) and in experiment [3] (setting [5]) was 10000 to 100000 nM throughout.

As to `O=C(N[C@H]1CC[C@@H](Oc2nc(N3CCOCC3)cc3ncccc23)CC1)c1ccccc1` [Compound 110, N-((1s,4s)-4-((7-Morpholino-1,6-naphthyridin-5-yl)oxy)cyclohexyl)benzamide], the IC50 in experiment [1] was less than 0.5 nM; in experiment [2] it was less than 100 nM. Also, the half-maximal effective concentration (EC50) in experiment [3] (setting [4]), in experiment [3] (setting [6]) and in experiment [3] (setting [5]) was 1000 to 10000 nM throughout.

Regarding `O=C(N[C@H]1CC[C@@H](Oc2nc(N3CCOCC3)cc3ncccc23)CC1)C1CCCO1` (stereo partly shown) [Compound 134, N-((1s,4s)-4-((7-Morpholino-1,6-naphthyridin-5-yl)oxy)cyclohexyl)tetrahydrofuran-2-carboxamide], the figures for the IC50 in experiment [1] and in experiment [2] were 1 to 10 nM and 1000 to 10000 nM, respectively. In addition, the EC50 in experiment [3] (setting [4]), in experiment [3] (setting [6]) and in experiment [3] (setting [5]) was 10000 to 100000 nM in each case.

As usually defined, the IC50 is the concentration at which inhibition is half-maximal. Broadly, the EC50 is the midpoint of the concentration-response curve.

The record behind these values is patent publication US20240246960A1 (adMare Therapeutics Society, priority 2021, published 2024).
